Assay results taken from patent publication US7972849B2, “Primate pluripotent stem cells produced by somatic cell nuclear transfer” (Oregon Health & Science University, priority 2007, dated 2011).
Where a SMILES comes first, the peptide text is derived from it. The star is where a group is joined. Cbz = O=C(OCc1ccccc1)*

How the values were obtained:
Type in all cases: cell-based, rhesus monkey
[1] = test system: monkey oocytes; assay: In vitro development following fertilization by ICSI of oocytes exposed to MG-132; details: 4 hours, MI oocytes, after ICSI
Experimental: Fertilization by ICSI and culture conditions for TSCs was performed as described previously (Wolf, Thormahlen et al. 2004). After ICSI, injected oocytes were placed in 4-well dishes (Nalge Nunc International Co., Naperville, Ill.) containing protein-free HECM-9 medium and cultured at 37° C. in 6% CO2, 5% O2 and 89% N2. Cultures were maintained under paraffin oil. SCNT-derived TSCs at the 8-cell stage were transferred to fresh plates of HECM-9 medium supplemented with 5% fetal bovine serum (FBS; HyClone, Logan, Utah) and cultured to the blastocyst stage with the medium changed every other day.
Failure to induce nuclear remodeling could reflect either inherently low MPF levels in MII oocytes recovered from ovarian stimulation protocols or loss of MPF resulting from premature oocyte activation during manipulation. In order to evaluate the first possibility, nuclear donor cells were fused with intact (non-enucleated) MII oocytes (n=13). […] To test the hypothesis that failed nuclear remodeling reflects premature activation caused by the SCNT procedures and decline in MPF activity mediated by the proteasome system, proteasome catalytic activity was inhibited with MG-132 (Josefsberg et al., Biol Reprod 62(5): 1270-7, 2000; Zhou et al., Science 302(5648): 117 2003).

[2] = test system: monkey SCNT embryos; assay: Nuclear remodeling (lamin A/C immunostaining, chromatin condensation) in reconstructed SCNT embryos; details: for occurrence of remodeling events in the donor nucleus: when used in the SCNT protocols disclosed
Experimental: Monkey oocytes and SCNT-derived totipotent cells were fixed in 4% paraformaldehyde for 20 min. After permeabilization with 0.2% Triton X-100 and 0.1% Tween-20, non-specific reactions were blocked with 10% normal goat serum (Jackson ImmunoResearch Laboratories, Inc., West Grove, Pa.). SCNT-derived totipotent cells were then incubated for 40 min in mouse monoclonal antibody against Oct-4 (POU5F1) or lamin A/C (1:200; Santa Cruz Biotechnology, Inc., Santa Cruz, Calif.). After extensive washing, SCNT-derived totipotent cells were exposed to affinity-purified goat anti-mouse, secondary antibody conjugated with indocarbocyanine (Cy3, 1:200; Jackson ImmunoResearch). SCNT-derived totipotent cells were then co-stained with 2 μg/ml of 4′, 6-diamidino-2-phenylindole (DAPI) for 10 min, whole-mounted onto slides and examined under epifluorescence microscopy.
Mature MII oocytes were exposed to 5 μM MG-132 immediately after retrieval and maintained in this inhibitor throughout enucleation and somatic donor cell fusion procedures.
Monkey oocytes are particularly vulnerable to premature activation and MPF degradation during in vitro manipulations, a likely characteristic of primates but with potential relevance to SCNT success in other mammals.

[3] = test system: monkey oocytes; assay: Inhibition of 1st polar body extrusion in monkey oocytes during the MI-MII transition; details: for # Matured after exposure / # Matured during exposure: exposure time 4 hours, MI oocytes, N=5
[4] = test system: monkey SCNT embryos; assay: Blastocyst development of monkey SCNT embryos produced by electrofusion
Source text: Alternatively, donor cell nuclear transfer was accomplished by electrofusion. Electrofusion procedures were similar to the conventional protocols described previously (Mitalipov, Yeoman et al. 2002; Mitalipov, Kuo et al. 2003) with the exception that calcium acetates were removed from the fusion buffer. A disaggregated donor cell was aspirated into a micropipette and transferred into the perivitelline space of the cytoplast. Cell fusion was induced by two 50 μsec DC pulses of 2.7 kV/cm (Electro Square Porator T-820, BTX, Inc., San Diego, Calif.) in 0.25 M D-sorbitol buffer containing 0.5 mM Hepes and 1 mg/ml fatty acid-free BSA. Successful fusion was confirmed visually 20-30 min after electroporation by the disappearance of the donor cell in the perivitelline space.
Reconstructed embryos were activated 2 hours after fusion by exposure by exposure to […] ionomycin (CalBiochem, San Diego, Calif.) for 5 min in TALP/HEPES medium supplemented with 1 mg/ml BSA and then transferred for 5 min in TALP/HEPES medium supplemented with 30 mg/ml BSA and 2 mM 6-dimethylaminopurine followed by a 5 h incubation in HECM-9 medium containing 2 mM 6-dimethylaminopurine at 37° C. in 5% CO2, 5% O2 and 90% N2. Activated SCNT embryos were placed in HECM-9 medium and cultured as described above.

**Q.** With `CC(C)C[C@@H](C=O)NC(=O)[C@H](CC(C)C)NC(=O)[C@H](CC(C)C)NC(=O)OCc1ccccc1` [MG-132] (Cbz-Leu-Leu-Leu-aldehyde) as the compound, how does the “# 8-cell” value ([1]; MG-132 0.5 μM) read?
**A.** Its value is 3.

**Q.** What about the “# Blastocyst” value ([1]; MG-132 0.5 μM) of the same compound?
**A.** Its value is 3.

**Q.** And the “# Morula” value ([1]; MG-132 0.5 μM)?
**A.** Its value is 3.

**Q.** What about the “# 8-cell” value ([1]; MG-132 2 μM) of the same compound?
**A.** Its value is 2.

**Q.** And the “# Blastocyst” value ([1]; MG-132 2 μM)?
**A.** Its value is 0.

**Q.** What about the “# Morula” value ([1]; MG-132 2 μM) of the same compound?
**A.** Its value is 0.

**Q.** And the “# 8-cell” value ([1]; MG-132 5 μM)?
**A.** Its value is 1.

**Q.** And the “# Blastocyst” value ([1]; MG-132 5 μM)?
**A.** Its value is 0.

**Q.** And the “# Morula” value ([1]; MG-132 5 μM)?
**A.** The value was 0.

**Q.** And the “nuclear remodeling of reconstructed embryos, by 4 hours after fusion” value ([2]; 5 μM MG-132 from retrieval throughout enucleation and fusion, by 4 hours)?
**A.** Its value is “clear evidence of nuclear remodeling”.

**Q.** And the “nuclear remodeling of reconstructed embryos, 1 hour after fusion” value ([2]; 5 μM MG-132 from retrieval throughout enucleation and fusion, sampled 1 hour after fusion)?
**A.** The value was “slight chromatin condensation and moderate lamin A/C staining”.

**Q.** What about the “MPF activity in monkey cytoplasts” value ([2]; MG-132 exposure at the higher concentration (5 μM)) of the same compound?
**A.** The value was “preserved MPF activity”.

**Q.** And the “occurrence of remodeling events in the donor nucleus” value [2]?
**A.** Its value is “increased the occurrence of remodeling events in the donor nucleus”.

**Q.** And the “# Matured after exposure” value ([3]; MG-132 0.5 μM)?
**A.** Its value is 1.

**Q.** And the “# Matured during exposure” value ([3]; MG-132 0.5 μM)?
**A.** Its value is 3.

**Q.** And the “# Matured after exposure” value ([3]; MG-132 2 μM)?
**A.** Its value is 3.

**Q.** And the “# Matured during exposure” value ([3]; MG-132 2 μM)?
**A.** The value was 2.

**Q.** What about the “# Matured after exposure” value ([3]; MG-132 5 μM) of the same compound?
**A.** The value was 4.

**Q.** What about the “# Matured during exposure” value ([3]; MG-132 5 μM) of the same compound?
**A.** The value was 0.

**Q.** What about the “inhibition of first polar body extrusion during the MI to MII transition” value ([3]; MG-132 at 5 μM, pilot study) of the same compound?
**A.** Its value is “efficient in inhibiting first polar body extrusion”.

**Q.** With `Cn1c(=O)c2c(ncn2C)n(C)c1=O` [caffeine] as the compound, how does the “occurrence of remodeling events in the donor nucleus” value [2] read?
**A.** The value was “increased the occurrence of remodeling events in the donor nucleus”.

**Q.** And the “time at which SCNT embryos reached the blastocyst stage” value ([4]; 2.5 mM caffeine for 2 hours immediately after electrofusion)?
**A.** Its value is no more than 8 days.

**Q.** And the “# Blastocysts forming by day 12” value ([4]; SCNT plus caffeine, 2.5 mM for 2 hours after electrofusion)?
**A.** Its value is 0.

**Q.** And the “# Blastocysts forming by day 8” value ([4]; SCNT plus caffeine, 2.5 mM for 2 hours after electrofusion, count)?
**A.** Its value is 4.

**Q.** And the “Blastocysts forming by day 8 (%)” value ([4]; SCNT plus caffeine, 2.5 mM for 2 hours after electrofusion, percentage)?
**A.** Its value is 31%.

**Q.** What about the “# cleaved” value ([4]; SCNT plus caffeine, 2.5 mM for 2 hours immediately after electrofusion, N=19) of the same compound?
**A.** The value was 13.
